In ChEMBL document CHEMBL1201861, “Genomics of Drug Sensitity in Cancer screening data, Wellcome Trust Sanger Institute”:

These compounds were tested on ACN (assay: cells). Settings: Homo sapiens, ACN.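 Further: growth inhibition of the human ACN cell line, read out via cell viability testing.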
Type: functional, cell-based, Homo sapiens
Description: SANGER: Inhibition of human ACN cell growth in a cell viability assay.
Work on `Cc1cc(N2CCOCC2)cc2[nH]c(-c3c(NC[C@@H](O)c4cccc(Cl)c4)cc[nH]c3=O)nc12` yielded an IC50 of 1.98 µM.

Each compound was assayed on MZ7-mel (assay: cells). Settings: Homo sapiens, MZ7-mel.
Type: functional, cell-based, Homo sapiens
Description: SANGER: Inhibition of human MZ7-mel cell growth in a cell viability assay.
For `Cc1cc(N2CCOCC2)cc2[nH]c(-c3c(NC[C@@H](O)c4cccc(Cl)c4)cc[nH]c3=O)nc12`, the IC50 was > 5.12 µM.

What follows are compounds tested on KURAMOCHI (assay: cells). Settings: Homo sapiens, KURAMOCHI.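 Further: growth inhibition of KURAMOCHI cells, read out with a cell viability assay.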
Type: functional, cell-based, Homo sapiens
Description: SANGER: Inhibition of human KURAMOCHI cell growth in a cell viability assay.
For `Cc1cc(N2CCOCC2)cc2[nH]c(-c3c(NC[C@@H](O)c4cccc(Cl)c4)cc[nH]c3=O)nc12`, the IC50 was 4 µM.

What follows are compounds tested on HCC2157 (assay: cells). Settings: Homo sapiens, HCC2157.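 Further: growth inhibition of the cancer cell line, read out as cell viability.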
Type: functional, cell-based, Homo sapiens
Description: SANGER: Inhibition of human HCC2157 cell growth in a cell viability assay.
For `Cc1cc(N2CCOCC2)cc2[nH]c(-c3c(NC[C@@H](O)c4cccc(Cl)c4)cc[nH]c3=O)nc12`, the IC50 was > 5.12 µM.

What follows are compounds tested on LAMA-84 (assay: cells). Settings: Homo sapiens, LAMA-84.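 Further: growth inhibition of LAMA-84 cells, read out with a cell viability assay.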
Type: functional, cell-based, Homo sapiens
Description: SANGER: Inhibition of human LAMA-84 cell growth in a cell viability assay.
`Cc1cc(N2CCOCC2)cc2[nH]c(-c3c(NC[C@@H](O)c4cccc(Cl)c4)cc[nH]c3=O)nc12` was tested, and the IC50 was > 5.12 µM.

These compounds were tested on IST-SL1 (assay: cells). Settings: Homo sapiens, IST-SL1.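 Further: growth inhibition of human IST-SL1 cells, read out with a cell viability assay.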
Type: functional, cell-based, Homo sapiens
Description: SANGER: Inhibition of human IST-SL1 cell growth in a cell viability assay.
In the case of `Cc1cc(N2CCOCC2)cc2[nH]c(-c3c(NC[C@@H](O)c4cccc(Cl)c4)cc[nH]c3=O)nc12`, the IC50 is reported as > 5.12 µM.

The compounds below were run on C8166 (assay: cells). Settings: Homo sapiens, C8166.
Type: functional, cell-based, Homo sapiens
Description: SANGER: Inhibition of human C8166 cell growth in a cell viability assay.
With `Cc1cc(N2CCOCC2)cc2[nH]c(-c3c(NC[C@@H](O)c4cccc(Cl)c4)cc[nH]c3=O)nc12` the IC50 was > 5.12 µM.

The compounds below were run on CCRF-CEM (assay: cells). Settings: Homo sapiens, CCRF-CEM.
Type: functional, cell-based, Homo sapiens
Description: SANGER: Inhibition of human CCRF-CEM cell growth in a cell viability assay.
With `Cc1cc(N2CCOCC2)cc2[nH]c(-c3c(NC[C@@H](O)c4cccc(Cl)c4)cc[nH]c3=O)nc12` the IC50 was > 5.12 µM.

These compounds were tested on LOX IMVI (assay: cells). Settings: Homo sapiens, LOX IMVI.
Type: functional, cell-based, Homo sapiens
Description: SANGER: Inhibition of human LOXIMVI cell growth in a cell viability assay.
In the case of `Cc1cc(N2CCOCC2)cc2[nH]c(-c3c(NC[C@@H](O)c4cccc(Cl)c4)cc[nH]c3=O)nc12`, the IC50 is reported as > 5.12 µM.

The compounds below were run on L-363 (assay: cells). Settings: Homo sapiens, L-363.
Type: functional, cell-based, Homo sapiens
Description: SANGER: Inhibition of human L-363 cell growth in a cell viability assay.
`Cc1cc(N2CCOCC2)cc2[nH]c(-c3c(NC[C@@H](O)c4cccc(Cl)c4)cc[nH]c3=O)nc12` showed an IC50 of 0.328 µM.

Each compound was assayed on A498 (assay: cells). Settings: Homo sapiens, A498.
Type: functional, cell-based, Homo sapiens
Description: SANGER: Inhibition of human A498 cell growth in a cell viability assay.
For `Cc1cc(N2CCOCC2)cc2[nH]c(-c3c(NC[C@@H](O)c4cccc(Cl)c4)cc[nH]c3=O)nc12`, the IC50 was > 5.12 µM.

What follows are compounds tested on NCI-H1155 (assay: cells). Settings: Homo sapiens, NCI-H1155.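 Further: cell growth inhibition measured by a viability assay.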
Type: functional, cell-based, Homo sapiens
Description: SANGER: Inhibition of human NCI-H1155 cell growth in a cell viability assay.
`Cc1cc(N2CCOCC2)cc2[nH]c(-c3c(NC[C@@H](O)c4cccc(Cl)c4)cc[nH]c3=O)nc12` was tested, and the IC50 was > 5.12 µM.

These compounds were tested on SCC-15 (assay: cells). Settings: Homo sapiens, SCC-15.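 Further: growth inhibition of SCC-15 cells, read out with a cell viability assay.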
Type: functional, cell-based, Homo sapiens
Description: SANGER: Inhibition of human SCC-15 cell growth in a cell viability assay.
In the case of `Cc1cc(N2CCOCC2)cc2[nH]c(-c3c(NC[C@@H](O)c4cccc(Cl)c4)cc[nH]c3=O)nc12`, the IC50 is reported as > 5.12 µM.

The compounds below were run on SK-N-FI (assay: cells). Settings: Homo sapiens, SK-N-FI.
Type: functional, cell-based, Homo sapiens
Description: SANGER: Inhibition of human SK-N-FI cell growth in a cell viability assay.
`Cc1cc(N2CCOCC2)cc2[nH]c(-c3c(NC[C@@H](O)c4cccc(Cl)c4)cc[nH]c3=O)nc12` was tested, and the IC50 was > 5.12 µM.

What follows are compounds tested on IST-MES1 (assay: cells). Settings: Homo sapiens, IST-MES1.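 Further: growth inhibition of IST-MES1 cells, measured with a cell viability assay.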
Type: functional, cell-based, Homo sapiens
Description: SANGER: Inhibition of human IST-MES1 cell growth in a cell viability assay.
`Cc1cc(N2CCOCC2)cc2[nH]c(-c3c(NC[C@@H](O)c4cccc(Cl)c4)cc[nH]c3=O)nc12` gave an IC50 of 1.12 µM.

The compounds below were run on NCI-H23 (assay: cells). Settings: Homo sapiens, NCI-H23.
Type: functional, cell-based, Homo sapiens
Description: SANGER: Inhibition of human NCI-H23 cell growth in a cell viability assay.
With `Cc1cc(N2CCOCC2)cc2[nH]c(-c3c(NC[C@@H](O)c4cccc(Cl)c4)cc[nH]c3=O)nc12` the IC50 was > 5.12 µM.

The compounds below were run on RPMI-8866 (assay: cells). Settings: Homo sapiens, RPMI-8866.
Type: functional, cell-based, Homo sapiens
Description: SANGER: Inhibition of human RPMI-8866 cell growth in a cell viability assay.
With `Cc1cc(N2CCOCC2)cc2[nH]c(-c3c(NC[C@@H](O)c4cccc(Cl)c4)cc[nH]c3=O)nc12` the IC50 was > 5.12 µM.

Each compound was assayed on SK-UT-1 (assay: cells). Settings: Homo sapiens, SK-UT-1.
Type: functional, cell-based, Homo sapiens
Description: SANGER: Inhibition of human SK-UT-1 cell growth in a cell viability assay.
For `Cc1cc(N2CCOCC2)cc2[nH]c(-c3c(NC[C@@H](O)c4cccc(Cl)c4)cc[nH]c3=O)nc12`, the IC50 was > 5.12 µM.

The compounds below were run on ES4 (assay: cells). Settings: Homo sapiens, ES4.
Type: functional, cell-based, Homo sapiens
Description: SANGER: Inhibition of human ES4 cell growth in a cell viability assay.
With `Cc1cc(N2CCOCC2)cc2[nH]c(-c3c(NC[C@@H](O)c4cccc(Cl)c4)cc[nH]c3=O)nc12` the IC50 was 0.622 µM.

What follows are compounds tested on SNU-5 (assay: cells). Settings: Homo sapiens, SNU-5.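 Further: cell viability readout used to measure growth inhibition in human NCI-SNU-5 cells.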
Type: functional, cell-based, Homo sapiens
Description: SANGER: Inhibition of human NCI-SNU-5 cell growth in a cell viability assay.
For `Cc1cc(N2CCOCC2)cc2[nH]c(-c3c(NC[C@@H](O)c4cccc(Cl)c4)cc[nH]c3=O)nc12`, the IC50 was > 5.12 µM.

What follows are compounds tested on BB30-HNC (assay: cells). Settings: Homo sapiens, BB30-HNC.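 Further: growth inhibition of the cultured cell line, read out by a cell viability assay.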
Type: functional, cell-based, Homo sapiens
Description: SANGER: Inhibition of human BB30-HNC cell growth in a cell viability assay.
With `Cc1cc(N2CCOCC2)cc2[nH]c(-c3c(NC[C@@H](O)c4cccc(Cl)c4)cc[nH]c3=O)nc12` the IC50 was 1.12 µM.

Each compound was assayed on NCI-H226 (assay: cells). Settings: Homo sapiens, NCI-H226.
Type: functional, cell-based, Homo sapiens
Description: SANGER: Inhibition of human NCI-H226 cell growth in a cell viability assay.
In the case of `Cc1cc(N2CCOCC2)cc2[nH]c(-c3c(NC[C@@H](O)c4cccc(Cl)c4)cc[nH]c3=O)nc12`, the IC50 is reported as > 5.12 µM.

The compounds below were run on HD-MY-Z (assay: cells). Settings: Homo sapiens, HD-MY-Z.
Type: functional, cell-based, Homo sapiens
Description: SANGER: Inhibition of human HD-MY-Z cell growth in a cell viability assay.
`Cc1cc(N2CCOCC2)cc2[nH]c(-c3c(NC[C@@H](O)c4cccc(Cl)c4)cc[nH]c3=O)nc12` was tested, and the IC50 was > 5.12 µM.

What follows are compounds tested on SBC-1 (assay: cells). Settings: Homo sapiens, SBC-1.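 Further: cell viability assay measuring growth inhibition of the SBC-1 cell line, IC50 being the concentration that halves growth.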
Type: functional, cell-based, Homo sapiens
Description: SANGER: Inhibition of human SBC-1 cell growth in a cell viability assay.
With `Cc1cc(N2CCOCC2)cc2[nH]c(-c3c(NC[C@@H](O)c4cccc(Cl)c4)cc[nH]c3=O)nc12` the IC50 was > 5.12 µM.

The compounds below were run on DU-4475 (assay: cells). Settings: Homo sapiens, DU-4475.
Type: functional, cell-based, Homo sapiens
Description: SANGER: Inhibition of human DU-4475 cell growth in a cell viability assay.
`Cc1cc(N2CCOCC2)cc2[nH]c(-c3c(NC[C@@H](O)c4cccc(Cl)c4)cc[nH]c3=O)nc12` was tested, and the IC50 was > 5.12 µM.

The compounds below were run on LS-513 (assay: cells). Settings: Homo sapiens, LS-513.
Type: functional, cell-based, Homo sapiens
Description: SANGER: Inhibition of human LS-513 cell growth in a cell viability assay.
In the case of `Cc1cc(N2CCOCC2)cc2[nH]c(-c3c(NC[C@@H](O)c4cccc(Cl)c4)cc[nH]c3=O)nc12`, the IC50 is reported as 4.17 µM.

Each compound was assayed on Mo (assay: cells). Settings: Homo sapiens, Mo.
Type: functional, cell-based, Homo sapiens
Description: SANGER: Inhibition of human Mo-T cell growth in a cell viability assay.
`Cc1cc(N2CCOCC2)cc2[nH]c(-c3c(NC[C@@H](O)c4cccc(Cl)c4)cc[nH]c3=O)nc12` was tested, and the IC50 was > 5.12 µM.

Each compound was assayed on no-10 (assay: cells). Settings: Homo sapiens.
Type: functional, cell-based, Homo sapiens
Description: SANGER: Inhibition of human no-10 cell growth in a cell viability assay.
In the case of `Cc1cc(N2CCOCC2)cc2[nH]c(-c3c(NC[C@@H](O)c4cccc(Cl)c4)cc[nH]c3=O)nc12`, the IC50 is reported as > 5.12 µM.

Each compound was assayed on LB2241-RCC (assay: cells). Settings: Homo sapiens, LB2241-RCC.
Type: functional, cell-based, Homo sapiens
Description: SANGER: Inhibition of human LB2241-RCC cell growth in a cell viability assay.
In the case of `Cc1cc(N2CCOCC2)cc2[nH]c(-c3c(NC[C@@H](O)c4cccc(Cl)c4)cc[nH]c3=O)nc12`, the IC50 is reported as > 5.12 µM.

These compounds were tested on 697 (assay: cells). Settings: Homo sapiens.
Type: functional, cell-based, Homo sapiens
Description: SANGER: Inhibition of human 697 cell growth in a cell viability assay.
With `Cc1cc(N2CCOCC2)cc2[nH]c(-c3c(NC[C@@H](O)c4cccc(Cl)c4)cc[nH]c3=O)nc12` the IC50 was 1.12 µM.

What follows are compounds tested on MONO-MAC-6 (assay: cells). Settings: Homo sapiens, MONO-MAC-6.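 Further: cell viability assay measuring growth inhibition of human MONO-MAC-6 cells.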
Type: functional, cell-based, Homo sapiens
Description: SANGER: Inhibition of human MONO-MAC-6 cell growth in a cell viability assay.
`Cc1cc(N2CCOCC2)cc2[nH]c(-c3c(NC[C@@H](O)c4cccc(Cl)c4)cc[nH]c3=O)nc12` gave an IC50 of 0.608 µM.

The compounds below were run on OS-RC-2 (assay: cells). Settings: Homo sapiens, OS-RC-2.
Type: functional, cell-based, Homo sapiens
Description: SANGER: Inhibition of human OS-RC-2 cell growth in a cell viability assay.
With `Cc1cc(N2CCOCC2)cc2[nH]c(-c3c(NC[C@@H](O)c4cccc(Cl)c4)cc[nH]c3=O)nc12` the IC50 was 1.46 µM.

What follows are compounds tested on NCI-H1650 (assay: cells). Settings: Homo sapiens, NCI-H1650.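 Further: growth inhibition of human NCI-H1650 cells measured by a cell viability assay.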
Type: functional, cell-based, Homo sapiens
Description: SANGER: Inhibition of human NCI-H1650 cell growth in a cell viability assay.
In the case of `Cc1cc(N2CCOCC2)cc2[nH]c(-c3c(NC[C@@H](O)c4cccc(Cl)c4)cc[nH]c3=O)nc12`, the IC50 is reported as > 5.12 µM.

The compounds below were run on SK-PN-DW (assay: cells). Settings: Homo sapiens, SK-PN-DW.
Type: functional, cell-based, Homo sapiens
Description: SANGER: Inhibition of human SK-PN-DW cell growth in a cell viability assay.
`Cc1cc(N2CCOCC2)cc2[nH]c(-c3c(NC[C@@H](O)c4cccc(Cl)c4)cc[nH]c3=O)nc12` gave an IC50 of 3.43 µM.

Each compound was assayed on HH (assay: cells). Settings: Homo sapiens, HH.
Type: functional, cell-based, Homo sapiens
Description: SANGER: Inhibition of human HH cell growth in a cell viability assay.
With `Cc1cc(N2CCOCC2)cc2[nH]c(-c3c(NC[C@@H](O)c4cccc(Cl)c4)cc[nH]c3=O)nc12` the IC50 was > 5.12 µM.

The compounds below were run on MV4-11 (assay: cells). Settings: Homo sapiens, MV4-11.
Type: functional, cell-based, Homo sapiens, MV-4-11
Description: SANGER: Inhibition of human MV-4-11 cell growth in a cell viability assay.
Compound `Cc1cc(N2CCOCC2)cc2[nH]c(-c3c(NC[C@@H](O)c4cccc(Cl)c4)cc[nH]c3=O)nc12` has an IC50 of 0.206 µM.

Each compound was assayed on KM-H2 (assay: cells). Settings: Homo sapiens, KM-H2.
Type: functional, cell-based, Homo sapiens
Description: SANGER: Inhibition of human KM-H2 cell growth in a cell viability assay.
With `Cc1cc(N2CCOCC2)cc2[nH]c(-c3c(NC[C@@H](O)c4cccc(Cl)c4)cc[nH]c3=O)nc12` the IC50 was > 5.12 µM.

What follows are compounds tested on DOHH-2 (assay: cells). Settings: Homo sapiens, DOHH-2.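 Further: growth inhibition of human DOHH-2 cells, read out with a cell viability assay.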
Type: functional, cell-based, Homo sapiens
Description: SANGER: Inhibition of human DOHH-2 cell growth in a cell viability assay.
With `Cc1cc(N2CCOCC2)cc2[nH]c(-c3c(NC[C@@H](O)c4cccc(Cl)c4)cc[nH]c3=O)nc12` the IC50 was > 5.12 µM.

Each compound was assayed on HCE-T (assay: cells). Settings: Homo sapiens, HCE-T.
Type: functional, cell-based, Homo sapiens
Description: SANGER: Inhibition of human HCE-T cell growth in a cell viability assay.
`Cc1cc(N2CCOCC2)cc2[nH]c(-c3c(NC[C@@H](O)c4cccc(Cl)c4)cc[nH]c3=O)nc12` was tested, and the IC50 was > 5.12 µM.

The compounds below were run on IA-LM (assay: cells). Settings: Homo sapiens.
Type: functional, cell-based
Description: SANGER: Inhibition of human IA-LM cell growth in a cell viability assay.
`Cc1cc(N2CCOCC2)cc2[nH]c(-c3c(NC[C@@H](O)c4cccc(Cl)c4)cc[nH]c3=O)nc12` was tested, and the IC50 was > 5.12 µM.

Each compound was assayed on NH-12 (assay: cells). Settings: Homo sapiens, NH-12.
Type: functional, cell-based, Homo sapiens
Description: SANGER: Inhibition of human NH-12 cell growth in a cell viability assay.
For `Cc1cc(N2CCOCC2)cc2[nH]c(-c3c(NC[C@@H](O)c4cccc(Cl)c4)cc[nH]c3=O)nc12`, the IC50 was > 5.12 µM.

The compounds below were run on JVM-2 (assay: cells). Settings: Homo sapiens, JVM-2.
Type: functional, cell-based, Homo sapiens
Description: SANGER: Inhibition of human JVM-2 cell growth in a cell viability assay.
`Cc1cc(N2CCOCC2)cc2[nH]c(-c3c(NC[C@@H](O)c4cccc(Cl)c4)cc[nH]c3=O)nc12` was tested, and the IC50 was > 5.12 µM.

Each compound was assayed on ONS-76 (assay: cells). Settings: Homo sapiens, ONS-76.
Type: functional, cell-based, Homo sapiens
Description: SANGER: Inhibition of human ONS-76 cell growth in a cell viability assay.
In the case of `Cc1cc(N2CCOCC2)cc2[nH]c(-c3c(NC[C@@H](O)c4cccc(Cl)c4)cc[nH]c3=O)nc12`, the IC50 is reported as > 5.12 µM.

These compounds were tested on 8-MG-BA (assay: cells). Settings: Homo sapiens, 8-MG-BA.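 Further: growth inhibition of 8-MG-BA cells, read out with a cell viability assay.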
Type: functional, cell-based, Homo sapiens
Description: SANGER: Inhibition of human 8-MG-BA cell growth in a cell viability assay.
`Cc1cc(N2CCOCC2)cc2[nH]c(-c3c(NC[C@@H](O)c4cccc(Cl)c4)cc[nH]c3=O)nc12` gave an IC50 of 3.93 µM.

The compounds below were run on MHH-PREB-1 (assay: cells). Settings: Homo sapiens, MHH-PREB-1.
Type: functional, cell-based, Homo sapiens
Description: SANGER: Inhibition of human MHH-PREB-1 cell growth in a cell viability assay.
With `Cc1cc(N2CCOCC2)cc2[nH]c(-c3c(NC[C@@H](O)c4cccc(Cl)c4)cc[nH]c3=O)nc12` the IC50 was > 5.12 µM.

What follows are compounds tested on NCI-H720 (assay: cells). Settings: Homo sapiens, NCI-H720.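 Further: growth inhibition of human NCI-H720 cells determined by a cell viability assay.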
Type: functional, cell-based, Homo sapiens
Description: SANGER: Inhibition of human NCI-H720 cell growth in a cell viability assay.
For `Cc1cc(N2CCOCC2)cc2[nH]c(-c3c(NC[C@@H](O)c4cccc(Cl)c4)cc[nH]c3=O)nc12`, the IC50 was > 5.12 µM.

What follows are compounds tested on JAR (assay: cells). Settings: Homo sapiens, JAR.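 Further: growth inhibition of human JAR cells determined with a cell viability assay.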
Type: functional, cell-based, Homo sapiens
Description: SANGER: Inhibition of human JAR cell growth in a cell viability assay.
In the case of `Cc1cc(N2CCOCC2)cc2[nH]c(-c3c(NC[C@@H](O)c4cccc(Cl)c4)cc[nH]c3=O)nc12`, the IC50 is reported as > 5.12 µM.
